Test results: patent US4369312A, “Method of producing oxo-containing azetidinone compounds” (Fujisawa Pharmaceutical Co., Ltd., priority 1980, dated 1983)
Converted amounts (≈) assume the structure as drawn. Like-named read-outs stand apart in the source and are kept apart here.

Legend:
Assay in all cases: In vitro antimicrobial activity, two-fold agar-plate dilution method (MIC)
Format in all cases: cell-based
[1] = tested on: Bacillus subtilis ATCC 6633; conditions: 37° C., 20 hours
Method: (§1) In vitro Antimicrobial activity was determined by the two-fold agar-plate dilution method as described below.
(§2) One loopful of an overnight culture of each test strain in Tripticase-soy broth (approximately 10^8 viable cells per ml) was streaked on heart infusion agar (HI-agar) containing graded concentrations of antimicrobial agents, and the minimal inhibitory concentration (MIC) was expressed in term of μg/ml after incubation at 37° C. for 20 hours.

[2] = tested on: Escherichia coli 31; conditions: HI-agar, 37° C., 20 hours
Method: as §1, §2

[3] = tested on: Staphylococcus aureus 209P JC-1; conditions: HI-agar, 37° C., 20 hours
Method: as §1, §2

[4] = ATCC6633, HI-agar, read-out: MIC

SMILES	MIC ([1]; HI-agar)	MIC [2]	MIC [3]	MIC [1, 4]	MIC ([2]; read-out: MIC)	MIC ([3]; read-out: MIC)
CC(=O)OCC1=C(C(=O)OC(c2ccccc2)c2ccccc2)N2C(=O)C(=O)C2SC1 (stereo not drawn) [Example 2(3), benzhydryl 7-oxocephalosporanate]	0.78 µg/mL (≈ 1.78 µM)	1.56 µg/mL (≈ 3.57 µM)	3.13 µg/mL (≈ 7.15 µM)	–	–	–
CON(C(=O)Cc1cccs1)[C@@H]1C(=O)N2C(C(=O)O)=C(COC(C)=O)CS[C@H]12 [Test compound 1, Sodium 7-[N-methoxy-2-(2-thienyl)acetamido]cephalosporanate]	–	–	–	0.78 µg/mL	6.25 µg/mL	6.25 µg/mL
Cn1nnnc1SCC1=C(C(=O)O)N2C(=O)[C@@H](N(O)C(=O)Cc3cccs3)[C@H]2SC1 [Test compound 3, 7-[N-Hydroxy-2-(2-thienyl)acetamido]-3-(1-methyl-1H-tetrazol-5-ylthiomethyl)-3-cephem-4-carboxylic acid]	–	–	–	3.13 µg/mL (≈ 6.68 µM)	6.25 µg/mL (≈ 13.3 µM)	6.25 µg/mL (≈ 13.3 µM)
